Test results reported in patent US20260125381A1, “NOVEL Kv3 CHANNEL MODULATORS” (Merck Sharp & Dohme LLC, priority 2022, published 2026).

Assays:
Kv3.1 [1] = target: T1, Kv3.1 (Homo sapiens, UniProt P48547); assay: Automated whole cell patch clamp (Qube) on HEK cells overexpressing Kv3.1; assay type: cell-based; parameters: expressed in transfected cells; host or cells: HEK cells, stably transfected; conditions: stably transfected HEK cells overexpressing Kv3.1
T1 sequence (P48547 1-511): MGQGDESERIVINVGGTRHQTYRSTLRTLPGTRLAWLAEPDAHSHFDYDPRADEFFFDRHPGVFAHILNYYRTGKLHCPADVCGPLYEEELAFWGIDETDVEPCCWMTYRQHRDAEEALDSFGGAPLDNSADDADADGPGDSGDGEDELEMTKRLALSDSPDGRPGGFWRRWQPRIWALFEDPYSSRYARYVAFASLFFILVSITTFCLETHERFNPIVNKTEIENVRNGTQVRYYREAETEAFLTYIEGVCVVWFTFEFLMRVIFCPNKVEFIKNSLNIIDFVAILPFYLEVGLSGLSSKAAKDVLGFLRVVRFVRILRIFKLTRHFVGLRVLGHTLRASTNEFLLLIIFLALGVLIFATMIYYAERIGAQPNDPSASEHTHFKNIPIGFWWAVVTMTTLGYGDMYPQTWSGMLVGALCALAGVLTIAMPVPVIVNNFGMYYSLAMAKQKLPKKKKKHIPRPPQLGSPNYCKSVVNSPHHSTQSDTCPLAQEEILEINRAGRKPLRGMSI
Procedure: In Vitro Characterization of Positive Modulators of Kv3.1 in Automated Patch Clamp
Automated whole cell patch-clamp was performed on the Qube using stably transfected HEK cell lines overexpressing Kv3.1 channels. Stable cell lines expressing Kv3.2 or Kv3.4 were used for counter-screening. Cells were held at −70 mV. Two depolarizing test pulses to −15 mV (200 ms) and +20 mV (200 ms) were given at a frequency of 0.1 Hz. Kv3.1 current amplitude elicited by test pulses was measured before and after compound addition at steady state. Ten concentrations were tested for each molecule. Raw data from Qube experiments were retrieved from the Qube database and analyzed using the Sophion Analyzer software and DR FIT Spotfire analysis. Apparent compound EC50 values, maximum potentiation, and EC2xIK (effective concentration at which a doubling in K current was observed) were determined using dose response 4 parameter curve fitting.

Kv3.1 [2] = target: T1, Kv3.1; assay: FLIPR based Tl+ influx assay for positive modulators of Kv3.1; assay type: cell-based; parameters: expressed in transfected cells; host or cells: ARF (assay-ready frozen) cells; conditions: thallium influx, FLIPR Tetra, 1536-well
Procedure: FLIPR Based Tl+ Influx Assay for Characterization of Positive Modulators of Kv3.1
Thallium influx assay was performed following manufacturer instruction with modifications. The major improvement was that the assay was miniaturized in 1536w assay plate to achieve ultrahigh throughput. The cell culture medium used for cell plating was the same medium mentioned above without selection antibiotics. Twenty to twenty four hours prior to the assay day, ARF cells in frozen vials were thawed in 37° C. water bath and washed once in the culture medium. The cell density was adjusted at 8.3×E5/ml and plated in 1536-w PDL coated plates (Aurora. US) at 4 μl/w, using Multidrop Combi (Thermo Fisher Scientific, Waltham, MA USA). Plates were then centrifuged at 300 g for two minutes for cells to achieve uniform settlement. The MicroClime plate lid (Labcyte Inc., San Jose, CA USA) was used to prevent evaporation from the edge wells and minimize the edge effect. Plates were incubated at 37° C., 5% CO2 overnight.
On the next day, the cell plates were further loaded with 3 μl/w of fluorescence dye solution containing all required components in the assay kit as instructed by the manufacturer protocol and incubated at room temperature for 60 min. Control and test compounds were then added into the cell plate by acoustic liquid transfer Echo (Labcyte Inc., San Jose, CA USA). After 10 min incubation with compounds, the cell plate was transferred to FLIPR Tetra platform (Molecular Devices, Sunnyvale, CA, USA) for recording fluorescence signal. The plate was recorded with excitation wavelength at 475-485 nm and emission wavelength at 510-545 nm. Data acquisition was taken at 1 Hz and completed in 130 seconds. After the first 10 s of recording, 3 μl of stimulus buffer was added into each well by liquid handler equipped in the FLIPR platform. The buffer contains 95 mM of Na2SO4 to maintain osmolarity, 7.5 mM of K2SO4 to depolarize membrane and activate the voltage gated Kv3.1 or 3.4 channels and 1 mM of Tl2SO4 to provide 2 mM Tl+ for Tl sensitive fluorescent signal. […]

SMILES | EC50 (Kv3.1 [1]) [nM] | EC50 (Kv3.1 [2]) [nM]
Cc1cccc(Oc2ccc(-n3c(=O)[nH]c4cccnc43)cn2)c1C [Example 1, 3-(6-(2,3-dimethylphenoxy)pyridin-3-yl)-1,3-dihydro-2H-imidazo[4,5-b]pyridin-2-one] | 4350 | 1630
Cc1ncc2[nH]c(=O)n(-c3cnc(Oc4cccc5c4C(C)(C)CO5)c(Cl)c3)c2n1 [Example 2, 9-(5-chloro-6-((3,3-dimethyl-2,3-dihydrobenzofuran-4-yl)oxy)pyridin-3-yl)-2-methyl-7,9-dihydro-8H-purin-8-one] | 213 | 146
Cc1ncc2[nH]c(=O)n(-c3cnc(Oc4cccc5c4C(C)(C)CO5)c(Cl)c3C)c2n1 [Example 3, 9-(5-chloro-6-((3,3-dimethyl-2,3-dihydrobenzofuran-4-yl)oxy)-4-methylpyridin-3-yl)-2-methyl-7,9-dihydro-8H-purin-8-one] |  | 31.2
